# Columns and labels:
# onychomycosis [1] = conditions: standard oral treatment; survey Arch Dermatol 134(12):1551-1554, 1998; cited from earlier work
# Trichophyton rubrum = test: inhibition of propagation of Trichophyton rubrum; assay type: cell-based; conditions: acting alone or in combination
# Description: An additional iron chelating agent, useful in the present invention, is an iron-chelating agent consisting of ciclopirox in conjunction with a light-blocking agent. Particularly, preferred iron chelating agents useful in the present invention are zinc pyrithione and Chelex-100. Pyrithione is 2-pyridinethiol-1-oxide and is a “bidentate ligand” that has the capacity to complex with metals other than zinc, such as iron. Chelex-100 is a styrene divinylbenzene copolymer containing paired iminodiacetate ions, which act as chelating groups for binding polyvalent metal ions.
# onychomycosis [2] = conditions: topical nail lacquer once daily, mild to moderate onychomycosis; combined results of two randomized, controlled trials; cited from earlier work
compound,measurement,setting,value
CN(C/C=C/C#CC(C)(C)C)Cc1cccc2ccccc12 [terbinafine],"disease-free nails, share of cases",onychomycosis [1],35-50%
zinc pyrithione,inhibitory effect on the propagation of Trichophyton rubrum,Trichophyton rubrum,potent inhibitory effect
Cc1cc(C2CCCCC2)n(O)c(=O)c1 [ciclopirox],"complete resolution, share of treated patients",onychomycosis [2],approximately 7%

# Reference: patent US20070243222A1, “FUNGICIDAL FORMULATION AND METHOD OF USE” (priority 2006, published 2007)
